PubChem BioAssay (NCI)
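Test compounds were applied to cells in 96-well plates for 48 hours at 5 doses. Definition used: TGI = concentration required for complete inhibition of growth.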

Columns and labels:
Assay in all cases: NCI tumour cell line growth inhibition, 48 h
[1] = test system: KM20L2 colon
[2] = test system: DLD-1 colon
[3] = test system: DMS 273 small cell lung
[4] = test system: DMS 114 small cell lung
[5] = test system: XF 498 CNS
[6] = test system: SNB-78 CNS
[7] = test system: RXF-631 renal

## COC(=O)C(=Cc1cc(OC)c(OC)c(OC)c1-c1cc2c(cc1C(C)=O)OCO2)C(=O)OC
[1]
  TGI: 62.8 µM
[2]
  TGI: 53.7 µM
[3]
  TGI: 69 µM
[4]
  TGI: 99.4 µM
[5]
  TGI: 59.7 µM

## C/C(=C1/CCC/C(=C(/C)c2ccccc2)C1=O)c1ccccc1
[1]
  TGI: > 100 µM
[6]
  TGI: > 100 µM
[2]
  TGI: > 100 µM
[3]
  TGI: > 100 µM
[4]
  TGI: 70.3 µM
[5]
  TGI: 82 µM

## CCO/N=C(/N)c1ncn(Cc2ccccc2)c1NCC(OCC)OCC
[1]
  TGI: > 100 µM
[6]
  TGI: > 100 µM
[2]
  TGI: > 100 µM
[3]
  TGI: > 100 µM
[4]
  TGI: > 100 µM
[5]
  TGI: > 100 µM

## O=C(Nc1ccc(Cl)cc1Cl)C(=O)C(C(=O)c1ccncc1)C1OC(=O)c2ccccc21 (stereo unspecified)
[1]
  TGI: > 100 µM
[6]
  TGI: > 100 µM
[7]
  TGI: > 100 µM
[2]
  TGI: > 100 µM
[4]
  TGI: > 100 µM
[5]
  TGI: > 100 µM

## CC(C)N1CN(C(C(=O)N[C@@H]2C(=O)N3C2SC(C)(C)C3C(=O)O)c2ccccc2)CSC1=S (stereo partly specified)
[1]
  TGI: > 100 µM
[6]
  TGI: > 100 µM
[2]
  TGI: > 100 µM
[3]
  TGI: > 100 µM
[4]
  TGI: > 100 µM
[5]
  TGI: > 100 µM

## C=C1CCC23CC(CC[C@@H]2[C@@]12C[C@@H](c1ccoc1)OC2=O)OC3=O (stereo partly specified)
[1]
  TGI: > 100 µM
[6]
  TGI: > 100 µM
[2]
  TGI: > 100 µM
[3]
  TGI: > 100 µM
[4]
  TGI: > 100 µM
[5]
  TGI: > 100 µM

## COc1cccc(N2C(=O)[C@H]3CC(C)c4c([nH]c5ccccc45)[C@H]3C2=O)c1 (stereo partly specified)
[1]
  TGI: > 100 µM
[6]
  TGI: > 100 µM
[2]
  TGI: > 100 µM
[3]
  TGI: > 100 µM
[5]
  TGI: > 100 µM

## Clc1ccc(-c2c(C3=NCCCN3)nnn2-c2ccc(Cl)cc2)cc1
[1]
  TGI: > 100 µM
[6]
  TGI: > 100 µM
[2]
  TGI: > 100 µM
[3]
  TGI: > 100 µM
[4]
  TGI: 49.5 µM
[5]
  TGI: 53.5 µM

## Cc1ccc(S(=O)(=O)OC(c2ccc(Cl)cc2Cl)C2OC(=O)c3ccccc32)cc1 (stereo unspecified)
[1]
  TGI: > 100 µM
[6]
  TGI: > 100 µM
[3]
  TGI: > 100 µM
[4]
  TGI: > 100 µM
[5]
  TGI: > 100 µM

## COc1cccc(/C=C2\C(=O)N(C(=O)c3ccc(NC(C)=O)cc3)N=C2C)c1
[6]
  TGI: > 100 µM
[2]
  TGI: > 100 µM
[3]
  TGI: > 100 µM
[4]
  TGI: > 100 µM
[5]
  TGI: > 100 µM

## CCOC(=O)C(Cc1cn(S(=O)(=O)c2ccccc2)c2ccccc12)(NC(C)=O)C(=O)OCC
[1]
  TGI: > 100 µM
[2]
  TGI: > 100 µM
[3]
  TGI: > 100 µM
[4]
  TGI: 80.4 µM
[5]
  TGI: > 100 µM
